Assay results reported in patent publication US12365687B2 (Hoffmann-La Roche Inc., priority 2021, dated 2025).

Columns and labels:
[1] = biological target: human GABAA α5β2γ1 receptor (Homo sapiens (Human), UniProt P31644+Q8N1C3); assay: Radioligand binding assay for γ1-containing GABAA subtypes, [3H]RO7239181 competition (α5β2γ1)
[2] = biological target: human GABAA α2β2γ1 receptor (Homo sapiens (Human), UniProt P47869+Q8N1C3); assay: Radioligand binding assay for γ1-containing GABAA subtypes, [3H]RO7239181 competition (α2β2γ1)
[3] = biological target: human GABAA α1β3γ2 receptor (Homo sapiens (Human), UniProt P14867+P18507); assay: Radioligand binding assay for γ2-containing GABAA subtypes, [3H]Flumazenil competition (α1β3γ2); conditions: for γ2/γ1 Selectivity Ratio: Ki α1β3γ2 (nM)/Ki α2β2γ1 (nM); for LogSel: Log[Ki α1β3γ2 (nM)/Ki α2β2γ1 (nM)]
[4] = biological target: α2β2γ1 GABAA receptor subtype (Homo sapiens (Human), UniProt P47869+Q8N1C3); assay: Two-electrode voltage clamp electrophysiology in Xenopus oocytes expressing GABAA receptors (modulation of GABA EC20 current); type: cell-based; conditions: for Efficacy (GABA)%: % modulation of GABA EC20 = 100*(Fold increase-1), α2β2γ1 oocytes, compound at approx. 30-fold Ki; for Fold increase h-GABA-A α2β2γ1 oocyte @ 30-fold Ki: Xenopus oocytes expressing α2β2γ1, compound at approx. 30-fold its Ki α2β2γ1, GABA EC20 current
How it was run: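 Each concentration was tested on ≥3 oocytes held at −80 mV at room temperature, recorded 3-5 days post-injection. A control and a test response to EC20 GABA (1.5 min each) were superimposed and their point-by-point ratio taken. Peak ratio reported as % modulation of GABA EC20 = 100×(fold increase−1).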

[5] = Ki h-GABAA α2β2γ1, [3H]RO7239181 competition binding, human GABAA α2β2γ1
[6] = Ki h-GABAA α2β2γ1, displacement of [3H]RO7239181, membranes of HEK293F cells expressing human receptors, means of two determinations

SMILES	Ki [1]	Ki [2, 5]	Ki [2, 6]	Ki [3]	γ2/γ1 Selectivity Ratio [3]	LogSel [3]	Efficacy (GABA)% [4]	Fold increase h-GABA-A α2β2γ1 oocyte @ 30-fold Ki [4]
C[C@@H]1N=C(c2c(F)cccc2F)c2c(ccc(C(F)(F)F)c2Cl)-n2cc(CO)nc21 [Example 149, [(4S)-7-chloro-6-(2,6-difluorophenyl)-4-methyl-8-(trifluoromethyl)-4H-imidazo[1,2-a][1,4]benzodiazepin-2-yl]methanol]	1.59 nM	8.3 nM	8.3 nM	1110 nM	134.1	2.13	71%	1.71
C[C@@H]1N=C(c2c(F)cccc2F)c2c(ccc(Cl)c2Cl)-n2nc(C(N)=O)nc21 [Example 35, (4S)-7,8-dichloro-6-(2,6-difluorophenyl)-4-methyl-4H-[1,2,4]triazolo[1,5-a][1,4]benzodiazepine-2-carboxamide]	0.73 nM	6.5 nM	6.53 nM	778 nM	119.1	2.08	67%	1.67
C[C@@H]1N=C(c2ncccc2F)c2c(ccc(Cl)c2Cl)-n2nc(C(=O)N3CC4(COC4)C3)nc21 [Example 102, [(4S)-7,8-dichloro-6-(3-fluoro-2-pyridyl)-4-methyl-4H-[1,2,4]triazolo[1,5-a][1,4]benzodiazepin-2-yl]-(2-oxa-6-azaspiro[3.3]heptan-6-yl)methanone]	6.83 nM	51.5 nM	51.5 nM	7250 nM	140.7	2.15	143%	2.43
CNC(=O)c1nc2n(n1)-c1ccc(Cl)c(Cl)c1C(c1c(F)cccc1F)=NC2 [Example 6, 7,8-dichloro-6-(2,6-difluorophenyl)-N-methyl-4H-[1,2,4]triazolo[1,5-a][1,4]benzodiazepine-2-carboxamide]	0.75 nM	5.5 nM	5.5 nM	1440 nM	260.9	2.42	101%	2.01
C[C@@H]1N=C(c2c(F)cccc2F)c2c(ccc(Cl)c2Cl)-n2nc(OC3COC3)nc21 [Example 92, (4S)-7,8-dichloro-6-(2,6-difluorophenyl)-4-methyl-2-(oxetan-3-yloxy)-4H-[1,2,4]triazolo[1,5-a][1,4]benzodiazepine]	4.45 nM	44.9 nM	44.9 nM	3280 nM	73.0	1.86	44%	1.44
C[C@@H]1N=C(c2ncccc2F)c2c(ccc(C(F)(F)F)c2Cl)-n2cc(CO)nc21 [Example 153, [(4S)-7-chloro-6-(3-fluoro-2-pyridyl)-4-methyl-8-(trifluoromethyl)-4H-imidazo[1,2-a][1,4]benzodiazepin-2-yl]methanol]	6.76 nM	62.4 nM	61.7 nM	6020 nM	97.7	1.99	247%	3.47
C[C@@H]1N=C(c2c(F)cccc2F)c2c(ccc(C(F)(F)F)c2Cl)-n2c(CO)cnc21 [Example 132, [(4S)-7-chloro-6-(2,6-difluorophenyl)-4-methyl-8-(trifluoromethyl)-4H-imidazo[1,2-a][1,4]benzodiazepin-1-yl]methanol]	2.63 nM	33.8 nM	33.8 nM	2560 nM	75.8	1.88	105%	2.05
CCOC1CN(C(=O)c2nc3n(n2)-c2ccc(Cl)c(Cl)c2C(c2ncccc2F)=N[C@H]3C)C1 [Example 86, (3-ethoxyazetidin-1-yl)-[(4S)-7,8-dichloro-6-(3-fluoro-2-pyridyl)-4-methyl-4H-[1,2,4]triazolo[1,5-a][1,4]benzodiazepin-2-yl]methanone]	6.13 nM	37 nM	37 nM	2050 nM	55.4	1.74	97%	1.97
C[C@@H]1N=C(c2c(F)cccc2F)c2c(ccc(Cl)c2Cl)-n2nc(C(=O)NCC(F)F)nc21 [Example 59, (4S)-7,8-dichloro-N-(2,2-difluoroethyl)-6-(2,6-difluorophenyl)-4-methyl-4H-[1,2,4]triazolo[1,5-a][1,4]benzodiazepine-2-carboxamide]	1.26 nM	7 nM	7 nM	640 nM	90.9	1.96	74%	1.74
C[C@@H]1N=C(c2c(F)cccc2F)c2c(ccc(Cl)c2Cl)-n2nc(C(=O)N3CC(C#N)C3)nc21 [Example 41, 1-[(4S)-7,8-dichloro-6-(2,6-difluorophenyl)-4-methyl-4H-[1,2,4]triazolo[1,5-a][1,4]benzodiazepine-2-carbonyl]azetidine-3-carbonitrile]	0.74 nM	3.3 nM	3.28 nM	389 nM	118.6	2.07	67%	1.67
C[C@@H]1N=C(c2c(F)cccc2F)c2c(ccc(Cl)c2Cl)-n2cc(C(=O)N3CC(C#N)C3)nc21 [Example 71, 1-[(4S)-7,8-dichloro-6-(2,6-difluorophenyl)-4-methyl-4H-imidazo[1,2-a][1,4]benzodiazepine-2-carbonyl]azetidine-3-carbonitrile]	1.84 nM	11.9 nM	11.9 nM	389 nM	32.8	1.52	51%	1.51
C[C@@H]1N=C(c2c(F)cccc2F)c2c(ccc(Cl)c2Cl)-n2nc(C(=O)N3CC4(COC4)C3)nc21 [Example 93, [(4S)-7,8-dichloro-6-(2,6-difluorophenyl)-4-methyl-4H-[1,2,4]triazolo[1,5-a][1,4]benzodiazepin-2-yl]-(2-oxa-6-azaspiro[3.3]heptan-6-yl)methanone]	2.25 nM	3.3 nM	3.3 nM	1290 nM	390.6	2.59	75%	1.75
C[C@H](O)CNC(=O)c1cn2c(n1)[C@H](C)N=C(c1ncccc1F)c1c-2ccc(C(F)(F)F)c1Cl [Example 155, (4S)-7-chloro-6-(3-fluoro-2-pyridyl)-4-methyl-N-[(2S)-2-hydroxypropyl]-8-(trifluoromethyl)-4H-imidazo[1,2-a][1,4]benzodiazepine-2-carboxamide]	10.8 nM	49.7 nM	49.3 nM	8990 nM	182.4	2.26	193%	2.93
C[C@@H]1N=C(c2ncccc2F)c2c(ccc(C(F)(F)F)c2Cl)-n2nc(C(=O)N3CC[C@H](F)C3)nc21 [Example 123, [(4S)-7-chloro-6-(3-fluoro-2-pyridyl)-4-methyl-8-(trifluoromethyl)-4H-[1,2,4]triazolo[1,5-a][1,4]benzodiazepin-2-yl]-[(3S)-3-fluoropyrrolidin-1-yl]methanone]	9.75 nM	91.8 nM	91.9 nM	> 30000 nM	326.6	2.51	162%	2.62
C[C@@H]1N=C(c2c(F)cccc2F)c2c(ccc(C(F)(F)F)c2Cl)-n2c1nc1c2CCC1 [Example 133, (10S)-6-chloro-8-(2,6-difluorophenyl)-10-methyl-5-(trifluoromethyl)-1,9,12-triazatetracyclo[9.6.0.02,7.013,17]heptadeca-2,4,6,8,11,13(17)-hexaene]	5.23 nM	23.3 nM	23.3 nM	827 nM	35.5	1.55	41%	1.41
C[C@@H]1N=C(c2c(F)cccc2F)c2c(ccc(C(F)(F)F)c2Cl)-n2nc(NC(=O)N3CC(F)C3)nc21 [Example 128, N-[(4S)-7-chloro-6-(2,6-difluorophenyl)-4-methyl-8-(trifluoromethyl)-4H-[1,2,4]triazolo[1,5-a][1,4]benzodiazepin-2-yl]-3-fluoro-azetidine-1-carboxamide]	4.2 nM	34.8 nM	34.9 nM	3880 nM	111.4	2.05	98%	1.98
